# Patent publication US8198273B2, “Compounds and methods for kinase modulation, and indications therefor” (Plexxikon Inc., priority 2009, dated 2012)
# pIC50: −log10 of the molar value.
# Legend:
# [1] = target: CYP2D6 (Homo sapiens, UniProt P10635); assay: CYP2D6 inhibition (fluorescent substrate); format: in vitro ADME; conditions: CYP2D6, AMMC substrate; read-out: Cyp IC50 2D6
# Outline: (§1)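 IC50 values come from plotting product fluorescence against compound concentration; inhibition lowers formation of the fluorescent metabolite. Ten-point twofold dilutions in co-factor mix were held 10 minutes at 37 °C before the enzyme reaction, also run at 37 °C.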
# [2] = Relative solubility by turbidity in aqueous buffers of varying pH; format: physicochemical; conditions: for turbidity threshold (L, M, H) 7.4: HEPES pH 7.4; for turbidity threshold (L, M, H) 4.5: SIF pH 4.5; for turbidity threshold (L, M, H) 6.8: SIF pH 6.8; for turbidity threshold (L, M, H) 1.4: buffer pH 1.4 (SGF)
# Outline: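 Turbidity endpoint: concentration where optical density at 490, 535 and 650 nm exceeds 0.01, three-wavelength average used. Buffers at pH 1.5, 4.5, 6.8 and 7.4; DMSO serial dilutions of 25 mM stock spiked 1 μL into 99 μL buffer. Low <31.3, moderate 31.3–250, high >250 μM.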
# [3] = target: CYP2C19 (Homo sapiens, UniProt P33261); assay: CYP2C19 inhibition (fluorescent substrate); format: in vitro ADME; conditions: CYP2C19, CEC substrate; read-out: Cyp IC50 2C19
# Outline: as §1
# [4] = target: c-Raf-1 (Homo sapiens, UniProt P04049); assay: c-Raf-1 biochemical kinase inhibition (AlphaScreen, biotin-MEK1 substrate); conditions: 100 μM ATP
# Outline: (§2)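 IC50 derived from AlphaScreen signal plotted against compound concentration. Final ATP 100 μM; 3 h incubation at room temperature. Eight-point 3-fold dilution series prepared from a 0.1 mM DMSO stock.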
# [5] = target: B-Raf V600E (Homo sapiens, UniProt P15056, V600E); assay: B-Raf V600E biochemical kinase inhibition (AlphaScreen, biotin-MEK1 substrate); conditions: 100 μM ATP
# Outline: as §2
# Sequence of B-Raf V600E (P15056 whole entry V600E): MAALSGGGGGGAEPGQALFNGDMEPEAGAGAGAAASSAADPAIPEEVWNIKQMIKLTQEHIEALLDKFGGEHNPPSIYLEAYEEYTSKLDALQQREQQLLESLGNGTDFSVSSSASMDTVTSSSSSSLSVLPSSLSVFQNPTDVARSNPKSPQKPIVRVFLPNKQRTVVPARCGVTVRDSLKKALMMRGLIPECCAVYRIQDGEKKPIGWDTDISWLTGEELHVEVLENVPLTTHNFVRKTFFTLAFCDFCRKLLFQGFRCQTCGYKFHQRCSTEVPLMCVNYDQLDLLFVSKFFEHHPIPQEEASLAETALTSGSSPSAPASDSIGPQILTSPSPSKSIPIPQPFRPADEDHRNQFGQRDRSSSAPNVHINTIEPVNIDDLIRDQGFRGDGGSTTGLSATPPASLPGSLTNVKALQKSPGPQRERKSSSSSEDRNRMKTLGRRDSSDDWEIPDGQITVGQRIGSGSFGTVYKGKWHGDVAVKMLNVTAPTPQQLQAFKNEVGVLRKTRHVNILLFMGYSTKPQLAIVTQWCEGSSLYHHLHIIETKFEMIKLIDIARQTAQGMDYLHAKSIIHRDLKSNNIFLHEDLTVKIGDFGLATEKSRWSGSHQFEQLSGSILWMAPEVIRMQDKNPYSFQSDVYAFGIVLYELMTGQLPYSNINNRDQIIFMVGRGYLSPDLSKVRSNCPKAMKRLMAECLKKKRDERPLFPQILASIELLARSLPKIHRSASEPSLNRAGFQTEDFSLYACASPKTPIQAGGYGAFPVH
# Sequence of CYP2C19 (P33261 whole entry): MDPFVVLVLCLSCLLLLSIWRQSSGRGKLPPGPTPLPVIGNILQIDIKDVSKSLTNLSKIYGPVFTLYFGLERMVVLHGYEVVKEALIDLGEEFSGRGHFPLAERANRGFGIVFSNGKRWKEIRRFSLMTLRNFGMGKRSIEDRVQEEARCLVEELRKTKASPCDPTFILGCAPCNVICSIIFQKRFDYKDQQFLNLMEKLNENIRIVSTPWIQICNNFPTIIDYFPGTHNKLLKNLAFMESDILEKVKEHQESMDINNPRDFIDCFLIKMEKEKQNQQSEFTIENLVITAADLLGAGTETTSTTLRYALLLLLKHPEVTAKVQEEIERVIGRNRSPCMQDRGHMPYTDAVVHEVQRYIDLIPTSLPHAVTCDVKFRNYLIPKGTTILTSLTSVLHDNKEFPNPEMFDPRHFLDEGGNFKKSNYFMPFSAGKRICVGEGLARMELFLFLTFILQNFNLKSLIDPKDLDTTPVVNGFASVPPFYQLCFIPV
# Sequence of CYP2D6 (P10635 whole entry): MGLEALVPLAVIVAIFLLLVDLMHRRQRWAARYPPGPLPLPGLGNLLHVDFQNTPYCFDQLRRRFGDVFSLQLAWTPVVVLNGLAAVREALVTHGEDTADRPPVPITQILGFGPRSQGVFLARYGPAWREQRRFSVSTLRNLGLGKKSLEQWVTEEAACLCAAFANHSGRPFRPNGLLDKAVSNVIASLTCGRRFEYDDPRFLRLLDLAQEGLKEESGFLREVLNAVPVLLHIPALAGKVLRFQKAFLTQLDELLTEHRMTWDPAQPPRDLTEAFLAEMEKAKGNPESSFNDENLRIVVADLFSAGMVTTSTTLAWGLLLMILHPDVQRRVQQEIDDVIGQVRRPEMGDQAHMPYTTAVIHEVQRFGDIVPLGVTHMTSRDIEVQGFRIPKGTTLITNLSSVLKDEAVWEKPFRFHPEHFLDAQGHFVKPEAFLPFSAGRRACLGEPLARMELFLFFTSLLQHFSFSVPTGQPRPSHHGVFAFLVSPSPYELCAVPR
# Sequence of c-Raf-1 (P04049 whole entry): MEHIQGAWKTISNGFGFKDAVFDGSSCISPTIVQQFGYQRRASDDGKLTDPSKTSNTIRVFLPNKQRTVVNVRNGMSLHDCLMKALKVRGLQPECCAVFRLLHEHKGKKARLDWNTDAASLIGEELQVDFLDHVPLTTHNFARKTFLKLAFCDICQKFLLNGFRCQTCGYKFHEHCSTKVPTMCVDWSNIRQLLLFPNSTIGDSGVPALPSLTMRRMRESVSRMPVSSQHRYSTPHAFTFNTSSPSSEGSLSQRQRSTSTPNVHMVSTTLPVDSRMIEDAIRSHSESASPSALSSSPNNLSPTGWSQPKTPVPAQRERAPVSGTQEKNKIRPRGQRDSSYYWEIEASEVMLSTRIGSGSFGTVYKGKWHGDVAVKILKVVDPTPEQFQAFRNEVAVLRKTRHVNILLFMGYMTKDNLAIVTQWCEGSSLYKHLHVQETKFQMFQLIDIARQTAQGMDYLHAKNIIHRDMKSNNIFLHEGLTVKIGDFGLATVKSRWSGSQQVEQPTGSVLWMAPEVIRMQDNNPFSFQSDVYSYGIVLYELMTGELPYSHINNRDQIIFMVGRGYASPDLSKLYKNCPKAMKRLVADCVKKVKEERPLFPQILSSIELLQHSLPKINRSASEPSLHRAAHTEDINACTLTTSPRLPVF
SMILES,pIC50 [1],"turbidity threshold (L, M, H) 7.4 [2]","turbidity threshold (L, M, H) 4.5 [2]","turbidity threshold (L, M, H) 6.8 [2]","turbidity threshold (L, M, H) 1.4 [2]",pIC50 [3],pIC50 [4],pIC50 [5]
"N#Cc1cnc2[nH]cc(C(=O)c3cccc(NS(=O)(=O)c4cc(F)ccc4F)c3F)c2c1 [P-2052, N-[3-(5-Cyano-1H-pyrrolo[2,3-b]pyridine-3-carbonyl)-2-fluoro-phenyl]-2,5-difluoro-benzenesulfonamide]",< 5.00,M (moderate solubility if the threshold concentration is 31.3 μM to 250 μM),L (low solubility if the threshold concentration is <31.3 04),M (moderate solubility if the threshold concentration is 31.3 μM to 250 μM),L (low solubility if the threshold concentration is <31.3 04),< 5.00,> 8.00,> 8.00
"CCCS(=O)(=O)Nc1ccc(F)c(C(=O)c2c[nH]c3ncc(-c4ccc(C)nc4)cc23)c1F [P-2213, Propane-1-sulfonic acid {2,4-difluoro-3-[5-(6-methyl-pyridin-3-yl)-1H-pyrrolo[2,3-b]pyridine-3-carbonyl]-phenyl}-amide]",< 5.00,L (low solubility if the threshold concentration is <31.3 04),M (moderate solubility if the threshold concentration is 31.3 μM to 250 μM),L (low solubility if the threshold concentration is <31.3 04),H (high solubility if the threshold concentration is >250 μM),< 5.00,> 8.00,> 8.00
"CCCS(=O)(=O)Nc1ccc(F)c(C(=O)c2c[nH]c3ncc(-c4ccc(OCCCN5CCOCC5)nc4)cc23)c1F [P-2236, Propane-1-sulfonic acid (2,4-difluoro-3-{5-[6-(3-morpholin-4-yl-propoxy)-pyridin-3-yl]-1H-pyrrolo[2,3-b]pyridine-3-carbonyl}-phenyl)-amide]",< 5.00,L (low solubility if the threshold concentration is <31.3 04),M (moderate solubility if the threshold concentration is 31.3 μM to 250 μM),L (low solubility if the threshold concentration is <31.3 04),M (moderate solubility if the threshold concentration is 31.3 μM to 250 μM),> 5.30,> 8.00,> 8.00
